These results are taken from patent US10766889B2, “Aryl-2,2′-tandem bisthiazole compound and preparation method and use thereof” (SHANGHAI INSTITUTE OF MATERIA MEDICA, CHINESE ACADEMY OF …, priority 2016, dated 2020).

In general, IC50 refers to the point on the concentration scale where inhibition reaches its midpoint.

Holding throughout (format): cell-based
The test system of assay [1] is Liver cancer BEL-7404. Description: Tumor cell proliferation inhibition, SRB. The note with it: Homo sapiens, 72 h, read-out: IC50 (mean ± SD) Liver cancer BEL-7404.
Protocol: (§1) After the drug was applied, 10 μL of CCK-8 solution was added to each well in Ramos, HL-60, Molt-4, Raji, CCRF-CEM, and SU-DHL-6 tumor cell line experiments, and incubated at 37° C. for 2 h. The OD value at 450 nm was measured by a microplate reader. […] After dried by convert placing in an oven, the plate was taken out and 100 μL of SRB solution (4 mg/mL SRB powder dissolved in 1% glacial acetic acid) was added into each well. After standed at room temperature for 15 minutes, it was washed five times with 1% glacial acetic acid to completely remove the SRB which has not bounded to the plate protein. After dried by convert placing in an oven, 150 μL of 10 mM Tris solution was added into each well, and the OD value at 560 nm was measured by a microplate reader.
(§2) The inhibition rate of tumor cell proliferation was calculated according to the following formula. The half-inhibition amount IC50 value was calculated by Log it method. Inhibition rate=(control group OD value−administration group OD value)/control group OD value×100%. Each set of experiments was repeated three times independently, while 3 replicate wells per concentration.
The subject of assay [2] is promyeloid leukemia HL60. Description: Tumor cell proliferation inhibition, CCK-8. The note with it: Homo sapiens, HL-60, 72 h, read-out: IC50 (mean ± SD) promyeloid leukemia HL60.
Protocol: as §1, §2
Assay [3] concerns Human blood lymphoma Raji. Description: Tumor cell proliferation inhibition, CCK-8. The conditions noted are these: 72 h, read-out: IC50 (mean ± SD) Human blood lymphoma Raji.
Protocol: as §1, §2
Assay [4] deals with Acute lymphocytic leukemia T lymphocyte CCRF. The assay is described as follows: Tumor cell proliferation inhibition, CCK-8. The conditions noted are these: Homo sapiens, 72 h, read-out: IC50 (mean ± SD) Acute lymphocytic leukemia T lymphocyte CCRF.
Protocol: as §1, §2
For assay [5], the system named is lymphoma Ramos. Description: Tumor cell proliferation inhibition, CCK-8. The note with it: Homo sapiens, 72 h, read-out: IC50 (mean ± SD) lymphoma Ramos.
Protocol: as §1, §2
Assay [6] has as its system stomach cancer MKN-74. Description: Tumor cell proliferation inhibition, SRB. The conditions noted are these: Homo sapiens, 72 h, read-out: IC50 (mean ± SD) stomach cancer MKN-74.
Protocol: as §1, §2
Assay [7] concerns Embryonic lung cells MRC-5. Description: Cell proliferation inhibition, SRB. The conditions noted are these: Homo sapiens, MRC5, 72 h, read-out: IC50 (mean ± SD) Embryonic lung cells MRC-5.
Protocol: as §1, §2
Assay [8] deals with Acute lymphoblastic leukemia MOLT-4. The assay is described as follows: Tumor cell proliferation inhibition, CCK-8. The note with it: Homo sapiens, 72 h, read-out: IC50 (mean ± SD) Acute lymphoblastic leukemia MOLT-4.
Protocol: as §1, §2
The subject of assay [9] is Lung Cancer A549. Description: Tumor cell proliferation inhibition, SRB. The conditions noted are these: Homo sapiens, 72 h, read-out: IC50 (mean ± SD) Lung Cancer A549. On the procedure:
The antitumor activity test of the example compounds was carried out, and the in vitro antitumor activities of the compounds were evaluated by measuring the growth inhibitory activities of the compounds against a plurality of human tumor cell lines.
Tumor cells (except MDA-MB-231) were routinely cultured under 37° C., 5% CO2.
According to the cell growth rate, the tumor cells in the logarithmic growth phase were inoculated into 96-well culture plates at 90 μL/well, and adherently grown for 24 h and then added with 10 μL/well, and each concentration was set to three replicate wells, and DMSO vehicle controls and cell-free wells at corresponding concentration were also set. Tumor cells (except MDA-MB-231) were cultured for 72 h under conditions of 37° C. and 5% CO2 (MDA-MB-231 cells were cultured at 37° C. without CO2). […] The OD value at 450 nm was measured by a microplate reader. […] After dried by convert placing in an oven, 150 μL of 10 mM Tris solution was added into each well, and the OD value at 560 nm was measured by a microplate reader.
The inhibition rate of tumor cell proliferation was calculated according to the following formula. The half-inhibition amount IC50 value was calculated by Log it method. […]

Assay [10] concerns Lung Cancer EBC-1. Description: Tumor cell proliferation inhibition, SRB. The note with it: Homo sapiens, EBC-1, 72 h, read-out: IC50 (mean ± SD) Lung Cancer EBC-1.

Structures are written as SMILES.

`Cc1[nH]c2ccccc2c1CCNCc1ccc(/C=C/C(=O)NO)cc1` [LBH589, panobinostat]: the half-maximal inhibitory concentration (IC50) in assay [1] amounted to 18.6 ± 1.51 nM; in assay [2], 12.3 ± 0.24 nM; in assay [3], 12.3 ± 1.61 nM; in [4], 13.7 ± 0.93 nM; in assay [5], 7.14 ± 0.42 nM; in assay [6] it was 29.2 ± 0.97 nM. Besides, the IC50 worked out at 76.9 ± 7.22 nM in [7], 15 ± 8.18 nM in assay [8] and 48.9 ± 7.01 nM in assay [9].
As to `O=C(CCCCCCC(=O)Nc1ccccc1)NO` [SAHA, vorinostat], the concentration for half-maximal inhibition (IC50) in assay [10] came out at 1550 ± 474 nM; in assay [9] it was 2910 ± 678 nM.
